According to patent publication US5891848A, “Peptide fragments” (Nippon Zoki Pharmaceutical Co., Ltd., priority 1995, dated 1999):
No end group written: not given here.

How the values were obtained:
[1] = tested on: neuronal death in the CA1 subfields of the hippocampus; assay: Protective effect on cerebral neurons after ischemic insult (common carotid artery occlusion); format: in vivo, Wister-strain rat; conditions: continuous intracerebroventricular infusion 850 μg/ml; carotid occlusion 15 minutes; histology five days after ischemia; 4 rats/group
Procedure: Additionally, the effects of the peptides of the present invention on neuronal death in the CA1 subfields of the hippocampus were tested as follows:
The peptide fragment of the present invention, the 1-29 amino acid residue peptide fragment of bovine aFGF in which Cys, an amino acid at the 16-position, was substituted with Ala or the 1-29 amino acid residue peptide fragment of bovine aFGF in which Cys, an amino acid at the 16-position, was substituted with Ser, was administered by continuous intracerebroventricular infusion (850 μg/ml. respectively) into the lateral cerebral ventricles of Wister-strain rat (250-300 g. 4 rats/a group) and their common carotid arteries were occluded for 15 minutes to induce ischemic insult. Five days after ischemia, the rats were deeply anesthetized with sodium pentobarbital and transcardially perfused. Then, the brains were frozen and cut coronally in 20 μm sections by microtomy, and stained by Nissl bodies. The sections were examined by histological analysis. As a result of the analyses, the protecting effect of the peptide of the present invention on neuronal death in the CA1 subfields of the hippocampus was observed (Ala-substituted peptide; 3/4 rats, Ser-substituted peptide; 4/4 rats).

[2] = tested on: senility-accelerated mice (SAM-P/8 strain); assay: Water maze task (Morris' water maze task); format: in vivo, mouse
Excerpt: A platform was placed at 1 cm under the water surface in a circular swimming pool for the experiment and then fine Styrofoam beads were uniformly sprinkled onto the water surface so that a mouse was unable to recognize the platform. Any hint to the mouse in the space around the device (such as persons in charge of the experiment, table, fluorescent light and machines for the experiment) was always kept constant during the experimental period. Four starting points were randomly selected, a mouse was placed into the water, turning its head to the wall of the pool, and its diving time until it escaped to the platform was measured. When the mouse climbed up to the platform, it was left as it was for 15 seconds. […] The case from one starting point was defined as one trial and four trials were done every ten minutes and defined as one block. Four blocks were carried out in total every other day. Senility-accelerated mice (SAM-P/8) which were not administered any compounds of the present invention were used as a control. […] After the above-menfioned four blocks were conducted, the platform was removed, the mouse was permitted to swim for a certain period, and the time for swimming in each of the four areas was measured. […] Therefore, the learning and remembering abilities could be determined measuring the staying time in each of the four areas.

[3] = tested on: senility-accelerated mice (SAM-P/8 strain); assay: Passive avoidance learning test; format: in vivo, mouse; conditions: SAM-P/8, sixth month after birth; s.c. once a week from third week after birth; group 1 150 μg/kg/day, group 2 80 μg/kg/day; test trial 24 hours after acquisition trial; compared to control (SAM-P/8); FIG. 1
Procedure: In a passive avoidance learning test, remembering ability of senility-accelerated mice of the SAM-P/8 strain decreases from the third month from birth. The effect of the peptide of the present invention for improving said learning disability was investigated. Thus, a mouse was placed in front of a dark box and its ability to remember what it learned was measured using the time it took to come into the box as an index. Electric current was turned on in the dark box after the mouse came into the box so that an electric shock was applied. […] The test trial was conducted 24 hours after the acquisition trial.
The peptide of the present invention was subcutaneously injected once a week since the third week after birth and its effect of improving the passive avoiding ability which was lowered in SAM-P/8 was investigated.

For FNLPLGNYKKPKLLYASNGGTFLRILPDG, the “protecting effect on neuronal death in the CA1 subfields of the hippocampus observed” value [1] was 3/4, the “diving time (latency) until escape to the platform, Block 1 to Block 4” value ([2]; SAM-P/8, ninth month from birth, dosing as in passive avoidance test, compared to the decrease for control (SAM-P/8), FIG. 2) was “unexpectedly decreased” and the “staying time in area 3, where the platform was located” value ([2]; SAM-P/8, platform removed after four blocks, compared to control (SAM-P/8), t-test p<0.001, FIG. 3) was “unexpectedly higher”. The “latency (seconds): time until the mouse came into the dark box in the test trial” value [3] was “unexpectedly higher”.
